# US12454525B2, “IL4I1 inhibitors and methods of use” (Merck Sharp & Dohme LLC, priority 2020, dated 2025)
# Molecular target: T1, recombinant IL4I1 (Homo sapiens, UniProt Q96RQ9)
# T1 construct: purchased R&D Systems 5684-AO-020
# T1 sequence (Q96RQ9 22-567): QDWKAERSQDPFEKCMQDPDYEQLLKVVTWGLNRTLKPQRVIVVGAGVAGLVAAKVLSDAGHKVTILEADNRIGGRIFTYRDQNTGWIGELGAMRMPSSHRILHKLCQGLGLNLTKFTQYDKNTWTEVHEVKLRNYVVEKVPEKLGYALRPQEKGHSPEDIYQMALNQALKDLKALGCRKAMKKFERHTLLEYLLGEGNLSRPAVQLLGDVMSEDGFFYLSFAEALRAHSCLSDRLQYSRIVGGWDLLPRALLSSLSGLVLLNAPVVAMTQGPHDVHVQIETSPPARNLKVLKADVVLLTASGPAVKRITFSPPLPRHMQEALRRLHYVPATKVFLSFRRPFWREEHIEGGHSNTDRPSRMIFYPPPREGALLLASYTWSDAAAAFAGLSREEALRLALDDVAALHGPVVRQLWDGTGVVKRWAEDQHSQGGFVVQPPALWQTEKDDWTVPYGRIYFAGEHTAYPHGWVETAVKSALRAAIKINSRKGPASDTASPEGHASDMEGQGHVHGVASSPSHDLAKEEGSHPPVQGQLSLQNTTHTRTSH
# Assay: IL4I1 Enzymatic Assay (Amplex Red/HRP coupled H2O2 detection)
# Assay type: biochemical
# Settings: 240 min; four-hour pre-incubation with compound; 1 nM IL4I1, 1 mM each Phe/Tyr/Trp; ten-point titration; fluorescence readout; read-out: Potency EC50 (nM) (240 min)
# Procedure: Interleukin 4 inducible protein 1 (IL4I1) is an L-amino oxidase that catalyzes the oxidation of aromatic residues (Phe, Trp and Tyr): L-amino acid+H2O+O2→2-oxo acid+NH3+H2O2. Equal molar of H2O2 and the corresponding alpha-ketoacid are produced when IL4I1 and substrate are added. In this assay, the hydrogen peroxide generated by IL4I1 is then detected through a coupled reaction with Amplex Red (10-acetyl-3,7-dihydroxyphenoxazine) and […] (HRP) to produce Resorufin product that could be detected in the form of fluorescence signals. The assessment of the inhibitory effect of small molecules (EC50) on IL4I1 is measured by the effectiveness of the compounds to inhibit the production of H2O2.
# Using this assay, the potency (EC50) of each compound was determined from a ten-point (1:3 serial dilution) titration curve using the following outlined procedure. To each well of a black flat-bottom Greiner (Cat #781076) 384 well-plate, 25 nL of compound (0.1% DMSO in final assay volume of 25 μL) was dispensed, followed by the addition of 12.5 μL of 1x assay buffer (50 mM Hepes 7.0 and 0.005% Tween20 (Sigma, Cat #P8341; low peroxide grade)) containing 2 nM of recombinant IL4I1 (R&D Systems, Cat #5684-AO-020). Plates were placed in an ambient temperature humidified chamber for a four-hour pre-incubation with compound. Subsequently, each reaction was initiated by the addition of 12.5 μL 1x assay buffer containing 2 mM of each aromatic amino acids (Phe/Tyr/Trp), 0.1 mM Amplex Red and 2 U/mL of HRP. The final reaction in each well of 25 μL consists of 1 nM of IL411, 1 mM of each residues (Phe, Tyr and Trp), 0.05 mM Amplex Red and 1 U/mL of HRP. It should be noted that the concentrations of Amplex Red and HRP used here are in excess such that the conversion of H2O2 to Resorufin product occurs instantaneously and non-rate limiting. Reactions were allowed to proceed for 120 minutes followed by fluorescence readout on a Spectramax with the following set parameters: 544 nm excitation/590 nm emission, 570 nm cutoff (EnVision is an alternative reader). Dose-response curves were generated by plotting percent effect (% product conversion; Y-axis) vs. Log10 compound concentrations (X-axis). EC50 values were calculated using a non-linear regression, four-parameters sigmoidal dose-response model and are shown in Table 16.
row,SMILES,EC50
1,"O=c1[nH]c2ccccc2n1Cc1ccc2c(c1)S(=O)(=O)CC2 [Example 28, 1-((1,1-dioxido-2,3-dihydrobenzo[b]thiophen-6-yl)methyl)-1,3-dihydro-2H-benzo[d]imidazol-2-one]",33 nM
2,"C[C@@H]1NC(=O)O[C@H]1c1cccc(Cn2c(=O)[nH]c3ccccc32)c1 [Example 31, 1-({3-[(4S,5S)-4-methyl-2-oxo-1,3-oxazolidin-5-yl]phenyl}methyl)-1,3-dihydro-2H-benzimidazol-2-one]",15 nM
3,"CC(=O)Nc1ccc(Cn2c(=O)[nH]c3ccccc32)cc1F [Example 32, N-{2-fluoro-4-[(2-oxo-2,3-dihydro-1H-benzimidazol-1-yl)methyl]phenyl} acetamide]",11 nM
4,"CC1NC(=O)c2cc(Cn3c(=O)[nH]c4ccccc43)ccc21 (stereo not drawn) [Example 33, 1-[(1-methyl-3-oxo-2,3-dihydro-1H-isoindol-5-yl)methyl]-1,3-dihydro-2H-benzimidazol-2-one]",15 nM
5,"O=c1[nH]c2ccccc2n1Cc1cnc2c(c1)CCC2 [Example 34, 1-[(6,7-dihydro-5H-cyclopenta[b]pyridin-3-yl)methyl]-1,3-dihydro-2H-benzimidazol-2-one]",153 nM
6,"CN(C)C(=O)Cc1ccc(Cn2c(=O)[nH]c3ccccc32)nc1 [Example 37, N,N-dimethyl-2-(6-((2-oxo-2,3-dihydro-1H-benzo[d]imidazol-1-yl)methyl)pyridin-3-yl)acetamide]",1600 nM
7,"O=C1CCCN1Cc1ccc(Cn2c(=O)[nH]c3ccccc32)cn1 [Example 41, 1-((6-((2-oxopyrrolidin-1-yl)methyl)pyridin-3-yl)methyl)-1,3-dihydro-2H-benzo[d]imidazol-2-one]",127 nM
8,"O=C1N(Cc2ccc(Cn3c(=O)[nH]c4ccccc43)cc2)CCC1(F)F [Example 43, 1-(4-((3,3-difluoro-2-oxopyrrolidin-1-yl)methyl)benzyl)-1,3-dihydro-2H-benzo[d]imidazol-2-one]",10 nM
9,"CC(=O)NCc1ccc(Cn2c(=O)[nH]c3ccccc32)cc1Cl [Example 44, N-(2-chloro-4-((2-oxo-2,3-dihydro-1H-benzo[d]imidazol-1-yl)methyl)benzyl)acetamide]",13 nM
10,"CNC(=O)c1cc(C)cc(Cn2c(=O)[nH]c3ccccc32)c1 [Example 48, N,3-dimethyl-5-((2-oxo-2,3-dihydro-1H-benzo[d]imidazol-1-yl)methyl)benzamide]",16 nM
11,"CC(=O)NCc1ccc(Cn2c(=O)[nH]c3ccccc32)cc1C [Example 49, N-(2-methyl-4-((2-oxo-2,3-dihydro-1H-benzo[d]imidazol-1-yl)methyl)benzyl)acetamide]",10 nM
12,"CC(=O)NCc1ccc(Cn2c(=O)[nH]c3ccccc32)c(C)c1 [Example 50, N-({3-methyl-4-[(2-oxo-2,3-dihydro-1H-benzimidazol-1-yl)methyl]phenyl}methyl)acetamide]",9 nM
13,"CC(=O)NC(C)(C)c1ccc(Cn2c(=O)[nH]c3ccccc32)cc1 [Example 51, N-(2-{4-[(2-oxo-2,3-dihydro-1H-benzimidazol-1-yl)methyl]phenyl}propan-2-yl)acetamide]",54 nM
14,"O=c1[nH]c2ccccc2n1Cc1ccc2c(c1)CCN2 [Example 52, 1-(indolin-5-ylmethyl)-1,3-dihydro-2H-benzo[d]imidazol-2-one]",18 nM
15,"Cn1cnnc1Cc1ccc(Cn2c(=O)[nH]c3ccccc32)cc1 [Example 53, 1-(4-((4-methyl-4H-1,2,4-triazol-3-yl)methyl)benzyl)-1,3-dihydro-2H-benzo[d]imidazol-2-one]",12 nM
16,"O=c1[nH]c2ccccc2n1Cc1cccnc1 [Example 56, 1-(pyridin-3-ylmethyl)-1,3-dihydro-2H-benzo[d]imidazol-2-one]",2480 nM
17,"CC(C)C1CC(Cn2c(=O)[nH]c3ccccc32)C1 (stereo not drawn) [Example 57, 1-{[3-(propan-2-yl)cyclobutyl]methyl}-1,3-dihydro-2H-benzimidazol-2-one]",3040 nM
18,"O=c1[nH]c2ccccc2n1CCC1CCCCC1 [Example 58, 1-(2-cyclohexylethyl)-1,3-dihydro-2H-benzimidazol-2-one]",936 nM
19,"O=c1[nH]c2ccccc2n1CC1CCCOC1 (stereo not drawn) [Example 59, 1-[(oxan-3-yl)methyl]-1,3-dihydro-2H-benzimidazol-2-one]",2930 nM
20,"O=c1[nH]c2ccccc2n1CCC1CCCO1 (stereo not drawn) [Example 60, 1-[2-(oxolan-2-yl)ethyl]-1,3-dihydro-2H-benzimidazol-2-one]",8660 nM

# More lines, in order of falling EC50, values ahead:
row,EC50,SMILES
1,9 nM,"O=c1[nH]c2ccccc2n1Cc1cc(C(F)F)cc(C(F)F)c1 [Example 30, 1-{[3,5-bis(difluoromethyl)phenyl]methyl}-1,3-dihydro-2H-benzimidazol-2-one]"
2,9 nM,"O=C1CCCN1Cc1sc(Cn2c(=O)[nH]c3ccccc32)cc1Cl [Example 36, 1-((4-chloro-5-((2-oxopyrrolidin-1-yl)methyl)thiophen-2-yl)methyl)-1,3-dihydro-2H-benzo[d]imidazol-2-one]"
3,7 nM,"O=c1[nH]c2ccccc2n1Cc1cccc(-c2nnco2)c1 [Example 27, 1-(3-(1,3,4-oxadiazol-2-yl)benzyl)-1,3-dihydro-2H-benzo[d]imidazol-2-one]"
4,7 nM,"CC(=O)NCc1sc(Cn2c(=O)[nH]c3ccccc32)cc1C [Example 40, N-((3-methyl-5-((2-oxo-2,3-dihydro-1H-benzo[d]imidazol-1-yl)methyl)thiophen-2-yl)methyl)acetamide]"
5,7 nM,"Cc1cc(Cn2c(=O)[nH]c3ccccc32)ccc1Cc1nnco1 [Example 54, 1-(4-((1,3,4-oxadiazol-2-yl)methyl)-3-methylbenzyl)-1,3-dihydro-2H-benzo[d]imidazol-2-one]"
6,6 nM,"O=c1[nH]c2ccccc2n1Cc1ccc(CN2CCCS2(=O)=O)cc1 [Example 26, 1-(4-((1,1-dioxidoisothiazolidin-2-yl)methyl)benzyl)-1,3-dihydro-2H-benzo[d]imidazol-2-one]"
7,6 nM,"CC(=O)NCc1sc(Cn2c(=O)[nH]c3ccccc32)cc1Cl [Example 38, N-((3-chloro-5-((2-oxo-2,3-dihydro-1H-benzo[d]imidazol-1-yl)methyl)thiophen-2-yl)methyl)acetamide]"
8,5 nM,"CNC(=O)c1cccc(Cn2c(=O)[nH]c3ccccc32)c1 [Example 29, N-methyl-3-[(2-oxo-2,3-dihydro-1H-benzimidazol-1-yl)methyl]benzamide]"
9,5 nM,"CS(=O)(=O)NCc1sc(Cn2c(=O)[nH]c3ccccc32)cc1Cl [Example 39, N-((3-chloro-5-((2-oxo-2,3-dihydro-1H-benzo[d]imidazol-1-yl)methyl)thiophen-2-yl)methyl)methanesulfonamide]"
10,3 nM,"CNC(=O)c1ccc(Cn2c(=O)[nH]c3ccccc32)s1 [Example 47, N-methyl-5-[(2-oxo-2,3-dihydro-1H-benzimidazol-1-yl)methyl]thiophene-2-carboxamide]"
11,2 nM,"N#CC1(c2cccc(Cn3c(=O)[nH]c4ccccc43)c2)CC1 [Example 35, 1-{3-[(2-oxo-2,3-dihydro-1H-benzimidazol-1-yl)methyl]phenyl} cyclopropane-1-carbonitrile]"
12,2 nM,"N#Cc1n[nH]c2ccc(Cn3c(=O)[nH]c4ccccc43)cc12 [Example 42, 5-((2-oxo-2,3-dihydro-1H-benzo[d]imidazol-1-yl)methyl)-1H-indazole-3-carbonitrile]"
13,0.8 nM,"O=c1[nH]c2ccccc2n1Cc1ccc2c(c1)CCC2 [Example 55, 1-((2,3-dihydro-1H-inden-5-yl)methyl)-1,3-dihydro-2H-benzo[d]imidazol-2-one]"
